Cc1onc(-c2c(Cl)cccc2Cl)c1C(=O)N[C@@H]1C(=O)N2[C@@H]1SC(C)(C)[C@@H]2C(=O)[O-].O.[Na+]
solubility (mole fraction)
Settings	288.15 K	293.15 K	298.15 K	303.15 K	308.15 K	313.15 K	318.15 K
in acetone	0.000605	0.000795	0.00101	0.00128	0.00161	0.00198	0.00244
in acetonitrile	0.000144	0.000155	0.000174	0.000184	0.000209	0.000221	0.000246
in ethanol	0.00146	0.00167	0.00187	0.00211	0.00237	0.00267	0.00292
in ethyl acetate	0.000548	0.000686	0.000843	0.001	0.00123	0.00149	0.00178
in isopropanol	0.000409	0.000524	0.000618	0.000683	0.000854	0.000958	0.00118
in methanol	0.0418	0.0476	0.0536	0.06	0.0657	0.0768	0.0853
